Data set [1] concerns the target T1, electric eel acetylcholinesterase (eeAChE) (Electrophorus electricus, UniProt O42275).
T1 construct: purchased Sigma-Aldrich, St. Louis, MO, USA
Description: Cholinesterase inhibition assay (Ellman's method), eeAChE. It is filed as biochemical. The conditions noted are these: for pIC50: Ellman's method, 25 °C, pH 7.4. As for the experimental part:
(§1) Cholinesterase activity was measured by Ellman’s method adapted for microtiter plates, as previously described by Ristovski et al.. A complex and its ligands were first screened for the IC50 determination and then the inhibitory constants (Ki) were determined. A stock solution of C1 (1 mg/mL) was prepared in 5% v/v DMSO in deionized water, while a stock solution of chlorido analogue C1′ (1 mg/mL) was prepared in 100% methanol (MeOH). […] These solutions were added to the wells, and gradually diluted in 100 mM of potassium phosphate buffer (pH 7.4) to the final volume of 50 µL. Acetylthiocholine chloride and 5,5′-dithiobis-2-nitrobenzoic acid were then dissolved in the same buffer to the respective final concentrations of 1 and 0.5 mM and added (100 μL) to the wells of the microtiter plates. C1 was screened against a suite of ChEs of human and animal origin (eeAChE, hrAChE, hsBChE) (all three from Sigma-Aldrich, St. Louis, MO, USA), hrBChE (gift from the research group of Professor Stanislav Gobec, Faculty of Pharmacy, University of Ljubljana), and csBChE. All enzymes were dissolved in the 100 mM potassium phosphate buffer (pH 7.4) to 0.0075 U/mL. Fifty μL of each ChE was added to start the reactions, which were followed spectrophotometrically at 405 nm and 25 °C for 5 min using a kinetic microplate reader (Dynex Technologies Inc., Chantilly, VA, USA). The blank reactions without the inhibitors were run with the appropriate dilutions of the solvents, in which the tested compound and positive control were initially diluted (5% aqueous DMSO or 100% MeOH), and the readings were corrected according to the appropriate blanks. […] Each measurement was repeated at least three times. Data were analyzed using OriginPro software (OriginPro 2020, OriginLab Corporation, Northampton, MA, USA).

For data set [2], the target named is canine serum butyrylcholinesterase (csBChE) (Canis lupus familiaris, UniProt A0A8I3PBA0). Description: Cholinesterase inhibition assay (Ellman's method), csBChE. It counts as biochemical. The conditions noted are these: for pIC50: Ellman's method, 25 °C, pH 7.4. As for the experimental part: as §1
Chain of canine serum butyrylcholinesterase (csBChE) (A0A8I3PBA0 29-602): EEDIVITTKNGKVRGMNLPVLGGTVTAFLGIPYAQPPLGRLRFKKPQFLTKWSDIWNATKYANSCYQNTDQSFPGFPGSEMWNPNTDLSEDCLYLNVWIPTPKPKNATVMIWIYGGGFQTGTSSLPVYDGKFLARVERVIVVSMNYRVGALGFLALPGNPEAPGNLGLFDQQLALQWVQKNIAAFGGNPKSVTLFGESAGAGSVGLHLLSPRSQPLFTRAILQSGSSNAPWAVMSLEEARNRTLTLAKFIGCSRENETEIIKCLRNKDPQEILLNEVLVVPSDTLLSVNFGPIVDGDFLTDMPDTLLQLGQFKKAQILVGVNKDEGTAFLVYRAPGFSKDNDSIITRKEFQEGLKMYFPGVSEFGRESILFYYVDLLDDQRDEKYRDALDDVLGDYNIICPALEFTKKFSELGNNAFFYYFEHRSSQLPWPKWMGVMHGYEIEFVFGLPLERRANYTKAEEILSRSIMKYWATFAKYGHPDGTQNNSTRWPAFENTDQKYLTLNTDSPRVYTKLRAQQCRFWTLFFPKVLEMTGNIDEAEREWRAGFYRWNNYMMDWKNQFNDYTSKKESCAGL
Data set [3] addresses T2, human recombinant butyrylcholinesterase (hrBChE) (Homo sapiens, UniProt P06276).
T2 construct: gift from the research group of Professor Stanislav Gobec, Faculty of Pharmacy, University of Ljubljana
Description: Cholinesterase inhibition assay (Ellman's method), hrBChE. It counts as biochemical. The settings on record: for pIC50: Ellman's method, 25 °C, pH 7.4. As for the experimental part: as §1

Data set [4] has as its target T3, human recombinant acetylcholinesterase (hrAChE) (Homo sapiens, UniProt P22303).
T3 construct: purchased Sigma-Aldrich, St. Louis, MO, USA
Description: Cholinesterase inhibition assay (Ellman's method), hrAChE. It counts as biochemical. The conditions noted are these: for pIC50: Ellman's method, 25 °C, pH 7.4. How it is done:
as §1

For data set [5], the target named is T4, horse serum butyrylcholinesterase (hsBChE) (Equus caballus, UniProt P81908).
T4 construct: BChE derived from horse serum; purchased Sigma-Aldrich, St. Louis, MO, USA; host or cells: horse serum
T4 sequence (P81908 whole entry): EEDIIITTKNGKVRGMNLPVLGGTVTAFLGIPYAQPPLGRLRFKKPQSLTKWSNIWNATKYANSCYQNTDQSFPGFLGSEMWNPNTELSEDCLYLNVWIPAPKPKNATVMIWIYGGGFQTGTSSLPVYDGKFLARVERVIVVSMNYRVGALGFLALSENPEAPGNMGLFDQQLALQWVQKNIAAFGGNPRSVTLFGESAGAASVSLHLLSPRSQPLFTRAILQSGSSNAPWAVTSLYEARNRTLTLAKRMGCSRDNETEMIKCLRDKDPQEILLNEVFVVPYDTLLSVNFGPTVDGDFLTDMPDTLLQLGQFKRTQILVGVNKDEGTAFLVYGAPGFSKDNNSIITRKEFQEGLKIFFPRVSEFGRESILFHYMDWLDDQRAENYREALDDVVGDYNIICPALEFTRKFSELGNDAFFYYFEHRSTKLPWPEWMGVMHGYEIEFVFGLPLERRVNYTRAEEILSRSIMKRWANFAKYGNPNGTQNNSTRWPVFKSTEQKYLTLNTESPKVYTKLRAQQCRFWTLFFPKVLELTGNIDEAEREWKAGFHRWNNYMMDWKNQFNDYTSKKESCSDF
Description: Cholinesterase inhibition assay (Ellman's method), hsBChE. It counts as biochemical. The conditions noted are these: for pIC50: Ellman's method, 25 °C, pH 7.4. How it is done: as §1

Data set [6] concerns the target T4, horse serum butyrylcholinesterase (hsBChE). The description is as above. It is filed as biochemical. The conditions noted are these: substrate acetylthiocholine 0.125, 0.25, 0.5 mM.
In data set [7] the test system is mouse hemidiaphragm muscle fibers. The conditions noted are these: 120 µM; for resting membrane potential (rVm), median: end-plate regions of surface fibers. How it is done: (§2) Mice were sacrificed by cervical dislocation and immediate exsanguination. After dissection of the diaphragm muscle with both phrenic nerves, the diaphragm muscle was cut into two hemidiaphragms. Each hemidiaphragm was maintained in oxygenated standard Krebs-Ringer solution (154 mM NaCl, 5 mM KCl, 2 mM CaCl2, 1 mM MgCl2, 5 mM HEPES, and 11 mM D-glucose; pH 7.4). Just prior to experiments, C1 was dissolved in a solution of 2.5% DMSO in deionized water at a stock concentration of 2 mg/mL. The final concentration of DMSO in the organ bath was always 0.104% v/v. All experiments were performed at room temperature (22–24 °C).
Electrophysiological recordings on hemidiaphragm muscle fibers were performed using conventional microelectrode techniques. For measurements of rVm, EPP, and MEPP, hemidiaphragm preparations were immersed in oxygenated K-R solution containing 1.6 μM of μ-conotoxin GIIIB (Bachem, Bubendorf, Switzerland) and incubated for 30 min. The same stimulus protocol, equipment, and software were used to perform membrane potential recordings, as previously described by Ristovski et al.. Only the highest concentration of C1 (120 μM) was studied. The recordings were performed before applying C1, 30 and 60 min after the compound application, and 15 min after the compound wash-out. MEPP and EPP amplitudes were normalized to a rVm of −70 mV using the formula: Vc = Vo (−70)/rVm, where Vc is the normalized amplitude of MEPPs and EPPs, and Vo is their recorded amplitude.

The subject of data set [8] is isolated mouse nerve-hemidiaphragm preparation. Description: Muscle contraction recordings on isolated hemidiaphragm. How it is done: as §2
The hemidiaphragm with phrenic nerve was pinned on its lateral side into a silicon-coated organ bath containing oxygenated Krebs-Ringer (K-R) solution. Then, the tendon part was linked to the lever of an isometric mechano-electrical transducer (Grass Instruments, West Warwick, RI, USA) via a stainless-steel hook and silk thread. The equal stimulus protocol, equipment, and software were used as previously described by Ristovski et al.. The concentrations of C1 studied were 30, 60, 90, and 120 μM and their effect on muscle contraction was continuously measured during 60 min after application. The muscle twitch and tetanic contraction blockade produced by C1 was shown as the percentage of the initial maximal response.

In data set [9] the target is T4, horse serum butyrylcholinesterase (hsBChE). The conditions noted are these: previously reported; ref Ristovski et al. [9]; cited from earlier work.
Data set [10] deals with T3, human recombinant acetylcholinesterase (hrAChE). The conditions noted are these: previously reported; ref Ristovski et al. [9]; cited from earlier work.
The target in data set [11] is T1, electric eel acetylcholinesterase (eeAChE). The settings on record: previously reported; ref Ristovski et al. [9]; cited from earlier work.
Data set [12] deals with AChE in mouse diaphragm muscle. The settings on record: 3 µM; cited from earlier work.

Data on five molecules can be found in article PMC9916964 (International Journal of Molecular Sciences, 2023).

pIC50, pKi: −log10 of the molar value. Read-outs that look alike come from different tables or passages of the source.

T2 sequence (P06276 29-602): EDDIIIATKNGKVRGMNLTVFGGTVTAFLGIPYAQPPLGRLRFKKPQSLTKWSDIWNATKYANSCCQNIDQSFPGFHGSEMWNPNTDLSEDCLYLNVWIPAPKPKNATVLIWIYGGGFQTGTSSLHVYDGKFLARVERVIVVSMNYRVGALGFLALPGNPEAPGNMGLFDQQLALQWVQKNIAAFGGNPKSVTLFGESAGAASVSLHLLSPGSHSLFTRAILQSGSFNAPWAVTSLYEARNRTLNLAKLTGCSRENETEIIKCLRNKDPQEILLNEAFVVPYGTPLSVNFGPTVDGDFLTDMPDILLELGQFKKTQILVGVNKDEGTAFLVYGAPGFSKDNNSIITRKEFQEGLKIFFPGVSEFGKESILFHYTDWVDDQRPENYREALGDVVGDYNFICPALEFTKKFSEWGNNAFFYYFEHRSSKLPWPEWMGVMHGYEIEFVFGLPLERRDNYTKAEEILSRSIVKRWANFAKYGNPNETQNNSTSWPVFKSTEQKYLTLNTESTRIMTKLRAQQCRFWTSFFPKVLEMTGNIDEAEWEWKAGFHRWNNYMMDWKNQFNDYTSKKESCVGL
T3 sequence (P22303 32-614): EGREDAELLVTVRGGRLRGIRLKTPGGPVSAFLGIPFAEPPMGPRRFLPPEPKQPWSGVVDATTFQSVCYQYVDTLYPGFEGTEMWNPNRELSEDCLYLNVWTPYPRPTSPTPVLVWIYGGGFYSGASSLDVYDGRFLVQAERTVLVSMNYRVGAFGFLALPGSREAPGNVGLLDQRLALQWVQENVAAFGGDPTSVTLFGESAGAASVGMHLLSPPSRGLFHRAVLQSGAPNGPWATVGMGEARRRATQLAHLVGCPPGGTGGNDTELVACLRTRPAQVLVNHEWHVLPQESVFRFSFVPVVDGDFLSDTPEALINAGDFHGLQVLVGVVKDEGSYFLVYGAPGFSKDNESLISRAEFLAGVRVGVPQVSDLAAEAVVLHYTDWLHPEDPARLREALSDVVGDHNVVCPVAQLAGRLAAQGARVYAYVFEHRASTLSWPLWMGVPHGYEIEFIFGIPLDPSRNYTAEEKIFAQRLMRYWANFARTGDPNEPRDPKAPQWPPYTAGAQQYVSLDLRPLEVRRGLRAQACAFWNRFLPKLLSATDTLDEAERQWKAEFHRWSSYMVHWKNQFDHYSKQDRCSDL
T1 sequence (O42275 24-633): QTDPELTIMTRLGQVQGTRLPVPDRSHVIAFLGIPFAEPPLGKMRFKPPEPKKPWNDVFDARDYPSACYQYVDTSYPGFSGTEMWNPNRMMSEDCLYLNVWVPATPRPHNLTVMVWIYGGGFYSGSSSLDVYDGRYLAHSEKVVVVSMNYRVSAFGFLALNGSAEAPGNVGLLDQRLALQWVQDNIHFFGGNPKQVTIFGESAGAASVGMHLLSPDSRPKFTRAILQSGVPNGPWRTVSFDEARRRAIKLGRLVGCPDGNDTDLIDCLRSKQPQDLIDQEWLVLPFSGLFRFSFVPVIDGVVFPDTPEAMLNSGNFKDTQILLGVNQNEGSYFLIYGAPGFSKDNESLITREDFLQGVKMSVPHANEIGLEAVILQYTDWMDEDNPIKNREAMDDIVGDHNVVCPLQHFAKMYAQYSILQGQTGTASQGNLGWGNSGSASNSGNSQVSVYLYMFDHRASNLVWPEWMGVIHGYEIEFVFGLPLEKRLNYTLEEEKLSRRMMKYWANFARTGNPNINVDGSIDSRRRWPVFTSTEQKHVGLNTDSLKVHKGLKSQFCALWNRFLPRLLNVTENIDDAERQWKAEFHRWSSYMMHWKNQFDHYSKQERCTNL

As for `COc1cccn(O)c1=S` [Compound L1, 1-hydroxy-3-methoxypyridine-2(1H)-thion], in data set [1], the “inhibition of eeAChE (in words)” value is “did not inhibit” and the pIC50 was less than 3.74. In addition, in [2], the “inhibition of csBChE (in words)” value is on record as “did not inhibit” and the pIC50 is less than 3.74. Moreover, in data set [3], the “inhibition of hrBChE (in words)” value is on record as “did not inhibit” and the pIC50 was less than 3.74. For the same molecule, in data set [4], the “inhibition of hrAChE (in words)” value is “did not inhibit” and the pIC50 was less than 3.74. Further, in [5], the “inhibition of hsBChE (in words)” value is “did not inhibit” and the pIC50 is less than 3.74.
For the molecule “[(η^6-p-Cymene)Ru(II)(1-hydroxy-3-methoxypyridine-2(1H)-thionato)pta]PF6 [Compound C1]”, the pKi in data set [6] is 5.88. Also, in data set [1], the “inhibition of eeAChE (in words)” value is given as “did not inhibit” and the pIC50 is less than 3.74. In data set [2], this molecule gave a pIC50 of less than 3.74. The “inhibition of csBChE (in words)” value in data set [2] (concentrations (0–180 µM) tested) is reported as “did not inhibit”. For the same molecule, the pIC50 in [3] is 3.84. Besides, the “inhibition of hrBChE lower compared to hsBChE” value in data set [3] (ratio of IC50 hrBChE versus hsBChE) is reported as “about 50 times”. In addition, the “resting membrane potential (rVm), median” value in data set [7] (30 min after exposure) is on record as −66.13 mV. Further, in [7] (60 min after exposure), the “resting membrane potential (rVm), median” value is on record as −66.63 mV. Moreover, in data set [7] (after 30 and 60 min of exposure), the “effect on resting membrane potential (rVm)” value is reported as “no effect”. In [7] (within 60 min), the MEPPs frequency result is listed as “without reducing”, the “amplitudes of EPPs” value is recorded as “did not affect” and the “amplitudes of MEPPs” value is “significantly decreased”. In addition, in data set [7] (within 60 min of exposure), the “half-decay time of EPPs” value was “shortened” and the “half-decay time of MEPPs” value is reported as “shortened”. Further, in [4], the “inhibition of hrAChE (in words)” value was “did not inhibit” and the negative-log IC50 (pIC50) was less than 3.74. For the same molecule, the “nerve-evoked single-twitch and tetanic contractions” value in data set [8] (120 µM, 60 min exposure) was “not statistically significant increases”. Moreover, the “effect on maximal amplitude of nerve-evoked and directly elicited single-twitch and tetanic contractions” value in data set [8] (30, 60, 90 and 120 µM, 60 min exposure) was “no significant effect”. In addition, in [8] (30-120 µM, an increase would indicate a myotoxic effect), the resting muscle tension result is on record as “did not detect an increase”. Moreover, in [5], the “inhibition of hsBChE (in words)” value is reported as “selectively inhibited”, the “type of inhibition of hsBChE” value is “reversible competitive type” and the pIC50 was 5.54.
Regarding “[(η^6-p-Cymene)Ru(II)(1-hydroxy-3-methoxypyridine-2(1H)-thionato)Cl] [C1′]”, in data set [6], the pKi was 5.47. In [1], the “inhibition of eeAChE (in words)” value is on record as “low micromolar range”, the “type of inhibition of eeAChE” value is listed as “reversible competitive type” and the pIC50 was 5.12. In data set [1] (substrate 0.125, 0.25, 0.5 mM), the pKi was 5.32. For the same molecule, in data set [2], the “inhibition of csBChE (in words)” value was “low micromolar range”, the “type of inhibition of csBChE” value is “reversible competitive type” and the pIC50 is 5.64. In data set [2] (substrate 0.125, 0.25, 0.5 mM), this molecule had a pKi of 5.52. For the same molecule, in data set [3], the “inhibition of hrBChE (in words)” value is recorded as “low micromolar range”, the “type of inhibition of hrBChE” value is reported as “reversible competitive type” and the pIC50 was 5.89. For the same molecule, in data set [3] (substrate 0.125, 0.25, 0.5 mM), the negative logarithm of the Ki (pKi) was 5.90. In addition, in data set [4], the “inhibition of hrAChE (in words)” value is given as “low micromolar range”, the “type of inhibition of hrAChE” value is on record as “reversible competitive type” and the pIC50 was 5.30. For the same molecule, the pKi in [4] (substrate 0.125, 0.25, 0.5 mM) is 5.27. Moreover, in data set [5], the “inhibition of hsBChE (in words)” value is “low micromolar range”, the “type of inhibition of hsBChE” value was “reversible competitive type” and the pIC50 was 5.63.
On to `Cc1ccc(C(C)C)cc1.Cc1ccc(C(C)C)cc1.[Cl][Ru][Cl].[Cl][Ru][Cl]` [Compound P1, dichloro(p-cymene)ruthenium(II) dimer], for which the pIC50 in data set [9] was 4.49; in [10], less than 3.74; in data set [11], less than 3.74. Besides, the pKi in data set [9] is 4.63.
Take `CN(C)C(=O)Oc1cccc([N+](C)(C)C)c1` [Neostigmine, neostigmine methyl sulphate, reference compound]: the pIC50 in data set [1] was 5.41; in data set [2], 4.55; in [3], 3.76; in data set [5], 4.20. The “effect on nerve-evoked single-muscle and tetanic contraction” value in data set [8] (3 µM, positive control) was “a slight increase in the amplitude of the nerve-evoked single-muscle contraction and a tetanic fade”. Moreover, the “inhibition of AChE in mouse diaphragm muscle” value in data set [12] is on record as 96%.

What is called pIC50 is the IC50 on a negative log10 scale, so that one unit is a factor of ten. By pKi is commonly meant the Ki on a negative log10 scale, so that one unit is a factor of ten.
